Source: patent EP1698638A1, “Lipopeptides having pharmaceutical activity” (Technische Universität Berlin, priority 2005, dated 2006)

Legend:
Penicillium sp. = test: disk diffusion assay on malt agar plates; format: cell-based; details: 10 µg in 30 µL 50% MeOH per disk
ATCC 6258 (QC) = test: microdilution assay (NCCLS), inhibitory concentration (IC); format: cell-based, Candida krusei
Description: (§1) More specifically, a determination of inhibitory concentration (IC) of hassallidin A and hassallidin B for various fungi, Candida species and Candida strains were performed with different media (RPMI-1640 or SAB or AM3) in a microdilution assay by following the guidelines in NCCLS documents M^38-P^25 and M27-A2^26 carried out as follows Each substance was dissolved with 100% dimethyl sulfoxide (Serva, Heidelberg, Germany) to give a stock solution of 3.2 mg/ml followed by nine log2 dilution steps with the solvent. This served as a 100-fold concentrated dilution series ranging from 1.6 mg/ml to 0.003 mg/ml of the test substance. The final concentration of the test substance was 16 µg/ml to 0.031 µg/ml.
(§2) Therefore the 100-fold concentrated dilution series (with 100% DMSO) was diluted to the final concentration by two dilution steps: • (1) Each concentration of the 100-fold concentrated substance was diluted with test medium for 1:50 (for ex.: adding of 13 µl of the test substance to 637 µl test medium). • (2) 100 µl of each 1:50 diluted concentration was filled in a row of wells of a microtitre plate. One well was without the substance but with the 1:50 diluted solvent serving as growth control.
(§3) A further 1:2 dilution of the antifungal was made by the inoculation of each well with 100 µl of the test organism, which was suspended in the test medium. The remaining well of the row was used for sterility control of the medium. The inoculum was strictly prepared according the NCCLS^25 guidelines, resulting in […] for Candida-species and Cryptococcus neoformans. For hyphomycetes CFU's were tenfold higher (see NCCLS). ^26 The growth of the hyphomycetes respectively the inhibition was measured by visual reading with the help of a reading mirror; scoring was done according to NCCLS :^26 score 0 corresponds to a optical clear well or an IC95 or higher, score 1 corresponds to an inhibition of 80 percent (IC80) and the score 2 of the NCCLS definition corresponds to the IC50 values in the tables. The growth of the yeasts was measured spectrophotometrically by a microplate reader (MR 5000, Dynatech laboratories) at 630 nm displaying the optical density (OD). The percent inhibition IC50, IC80 or IC95 (corresponding the scores of 2, 1 and 0) was calculated by the following formula: (100−[(ODof the well−ODof the medium)] × 100)/((ODof the growth control−ODof the medium).) [formula] Table 3. Test series for determining IC values of hassallidin A and B in different media using Candida albicans and Candida krusei. The IC values were measured after 24 h and 48 h at 30 °C.

Candida albicans [1] = test: disk diffusion assay on malt agar plates; format: cell-based; details: 10 µg in 30 µL 50% MeOH per disk
Fusarium sambucium = test: disk diffusion assay on malt agar plates; format: cell-based; details: 10 µg in 30 µL 50% MeOH per disk
Candida glabrata = test: disk diffusion assay on malt agar plates; format: cell-based; details: 10 µg in 30 µL 50% MeOH per disk
Aspergillus fumigatus [2] = test: serial dilution test, minimum inhibitory concentration (MIC); format: cell-based; details: RPMI-1640 medium, 35 °C, 48 h
Description: (§4) The antifungal activity of the compounds according to the present invention, in particular hassallidin A and hassallidin B, was verified for Aspergillus fumigatus and Candida albicans by minimum inhibitory concentration (MIC) data in a serial dilution test. For each fungus six testing wells of a microtiter plate were prepared with 240 µL medium (Sigma RPMI-1640), 10 µL inoculum suspension and 50 µL fungicide solution (50% MeOH) of different concentrations. Inoculum preparation was carried out by guideline of NCCLS.^25 The fungicide solution preparation took place in a series of twofold dilutions from a stock solution of 92 µg/mL starting with 4.6 µg/50 µL down to 0.14 µg/50 µL. One well was prepared without antifungal agent for unhindered growth as control. The microtiter plates were incubated for Candida albicans and Aspergillus fumigatus at 35 °C for 24 h and 48 h, respectively. Tests were run in triplicates. Inhibition of growth was assessed by comparing the fungal growth of the test samples with the control well by determination of optical density at 595 nm in a microplate reader. The concentration of the well at highest dilution that was still free from growth was assigned the minimum inhibitory concentration (MIC in µg/mL). […] No activities were observed by using Bacillus subtilis, Streptomyces versicolor or Escherchia coli in disk diffusion assays on LB-agar plates with 10 µg hassallidin A in 30 µL 50% MeOH per disk.

Candida albicans [3] = test: as above; format: cell-based; details: RPMI-1640 medium, 35 °C, 24 h
Description: as §4

Candida albicans SC 5314 = test: microdilution assay (NCCLS), inhibitory concentration (IC); format: cell-based
Description: as §1, §2, §3

Aspergillus fumigatus [4] = test: disk diffusion assay on malt agar plates; format: cell-based; details: 10 µg in 30 µL 50% MeOH per disk
[5] = Table 3 series, RPMI, 30 °C, 24h
[6] = Table 3 series, RPMI, 30 °C, 48h
[7] = Table 4 series, RPMI-1640 medium, 30°C/24h
[8] = Table 4 series, RPMI-1640 medium, 30°C/48h
[9] = Table 4 series, RPMI-1640 medium, 35°C/24h
[10] = Table 4 series, RPMI-1640 medium, 35°C/48h
[11] = Table 3 series, AM3, 30 °C, 24h
[12] = Table 3 series, AM3, 30 °C, 48h
[13] = Table 3 series, SAB, 30 °C, 24h
[14] = Table 3 series, SAB, 30 °C, 48h

hassallidin A was tested, and the “antifungal activity in disk diffusion assay” value (from here on “antifungal activity”) (Penicillium sp.) was “precise antifungal activity”, the IC50 (ATCC 6258 (QC); [5]) was 16 µg/mL and the IC80 (ATCC 6258 (QC); [5]) was 16 µg/mL. It also gave an IC95 (ATCC 6258 (QC); [5]) of 16 µg/mL, an IC50 (ATCC 6258 (QC); [6]) of 16 µg/mL and an IC80 (ATCC 6258 (QC); [6]) of 16 µg/mL. The IC95 (ATCC 6258 (QC); [6]) was 16 µg/mL, the IC50 (ATCC 6258 (QC); [7]) was 8 µg/mL and the IC80 (ATCC 6258 (QC); [7]) was 8 µg/mL. It also gave an IC95 (ATCC 6258 (QC); [7]) of 8 µg/mL, an IC50 (ATCC 6258 (QC); [8]) of 8 µg/mL and an IC80 (ATCC 6258 (QC); [8]) of 8 µg/mL. It also gave an IC95 (ATCC 6258 (QC); [8]) of 8 µg/mL, an IC50 (ATCC 6258 (QC); [9]) of 8 µg/mL and an IC50 (ATCC 6258 (QC); [10]) of 16 µg/mL. For the same substance, the IC95 (ATCC 6258 (QC); [10]) was 16 µg/mL, the “antifungal activity” value (Candida albicans [1]) was “precise antifungal activity” and the “antifungal activity” value (Fusarium sambucium) was “precise antifungal activity”. For the same substance, the “antifungal activity” value (Candida glabrata) was “precise antifungal activity”, the MIC (Aspergillus fumigatus [2]) was 4.8 µg/mL and the MIC (Candida albicans [3]) was 4.8 µg/mL. The IC50 (Candida albicans SC 5314; [11]) was 4 µg/mL, the IC80 (Candida albicans SC 5314; [11]) was 4 µg/mL and the IC95 (Candida albicans SC 5314; [11]) was 4 µg/mL. It also gave an IC50 (Candida albicans SC 5314; [12]) of 8 µg/mL, an IC80 (Candida albicans SC 5314; [12]) of 8 µg/mL and an IC95 (Candida albicans SC 5314; [12]) of 8 µg/mL. For the same substance, the IC50 (Candida albicans SC 5314; [5]) was 16 µg/mL, the IC80 (Candida albicans SC 5314; [5]) was 16 µg/mL and the IC95 (Candida albicans SC 5314; [5]) was 16 µg/mL. For the same substance, the IC50 (Candida albicans SC 5314; [6]) was 16 µg/mL, the IC80 (Candida albicans SC 5314; [6]) was 16 µg/mL and the IC95 (Candida albicans SC 5314; [6]) was 16 µg/mL. The IC50 (Candida albicans SC 5314; [13]) was 4 µg/mL, the IC80 (Candida albicans SC 5314; [13]) was 4 µg/mL and the IC95 (Candida albicans SC 5314; [13]) was 4 µg/mL. The IC50 (Candida albicans SC 5314; [14]) was 8 µg/mL, the IC80 (Candida albicans SC 5314; [14]) was 8 µg/mL and the IC95 (Candida albicans SC 5314; [14]) was 8 µg/mL. For the same substance, the IC50 (Candida albicans SC 5314; [9]) was 8 µg/mL, the IC80 (Candida albicans SC 5314; [9]) was 8 µg/mL and the IC95 (Candida albicans SC 5314; [9]) was 8 µg/mL. For the same substance, the IC50 (Candida albicans SC 5314; [10]) was 8 µg/mL, the IC80 (Candida albicans SC 5314; [10]) was 8 µg/mL and the IC95 (Candida albicans SC 5314; [10]) was 8 µg/mL. For the same substance, the “antifungal activity” value (Aspergillus fumigatus [4]) was “precise antifungal activity”.

In the case of hassallidin B, the “antifungal activity” value (Penicillium sp.) is reported as “precise antifungal activity”, the IC50 (ATCC 6258 (QC); [5]) is reported as 16 µg/mL and the IC80 (ATCC 6258 (QC); [5]) is reported as 16 µg/mL. The IC95 (ATCC 6258 (QC); [5]) was 16 µg/mL, the IC50 (ATCC 6258 (QC); [6]) was 16 µg/mL and the IC80 (ATCC 6258 (QC); [6]) was 16 µg/mL. The IC95 (ATCC 6258 (QC); [6]) was 16 µg/mL, the “antifungal activity” value (Candida albicans [1]) was “precise antifungal activity” and the “antifungal activity” value (Fusarium sambucium) was “precise antifungal activity”. For the same substance, the “antifungal activity” value (Candida glabrata) was “precise antifungal activity”, the MIC (Aspergillus fumigatus [2]) was 4.8 µg/mL and the MIC (Candida albicans [3]) was 4.8 µg/mL. It also gave an IC50 (Candida albicans SC 5314; [11]) of 4 µg/mL, an IC80 (Candida albicans SC 5314; [11]) of 4 µg/mL and an IC95 (Candida albicans SC 5314; [11]) of 4 µg/mL. For the same substance, the IC50 (Candida albicans SC 5314; [12]) was 8 µg/mL, the IC80 (Candida albicans SC 5314; [12]) was 8 µg/mL and the IC95 (Candida albicans SC 5314; [12]) was 8 µg/mL. It also gave an IC50 (Candida albicans SC 5314; [5]) of 16 µg/mL, an IC80 (Candida albicans SC 5314; [5]) of 16 µg/mL and an IC95 (Candida albicans SC 5314; [5]) of 16 µg/mL. It also gave an IC50 (Candida albicans SC 5314; [6]) of 16 µg/mL, an IC80 (Candida albicans SC 5314; [6]) of 16 µg/mL and an IC95 (Candida albicans SC 5314; [6]) of 16 µg/mL. It also gave an IC50 (Candida albicans SC 5314; [13]) of 8 µg/mL, an IC80 (Candida albicans SC 5314; [13]) of 8 µg/mL and an IC95 (Candida albicans SC 5314; [13]) of 8 µg/mL. The IC50 (Candida albicans SC 5314; [14]) was 8 µg/mL, the IC80 (Candida albicans SC 5314; [14]) was 8 µg/mL and the IC95 (Candida albicans SC 5314; [14]) was 8 µg/mL. For the same substance, the “antifungal activity” value (Aspergillus fumigatus [4]) was “precise antifungal activity”.
